Values of other authors in PMC10247525 (Colloids and surfaces. B, Biointerfaces, 2023).
≈ marks a conversion by molar mass, not a printed value. Where “and” joins values, the source holds several entries; their conditions need not be identical. Identical values can stand only once.

Assays:
[1] = cited from earlier work
[2] = cited from earlier work; remark: listed apart in the source
[3] = cited from earlier work; remark: listed apart in the source

Structure (SMILES) | solubility in water [1] | solubility in methanol [2] | logP (octanol/water) [3]
O=c1[nH]cc(F)c(=O)[nH]1 [5-Fluorouracil] | 12.5 mg/ml and 96 mM | 18 mg/mL (≈ 138 mM) | 
COc1cccc2c1C(=O)c1c(O)c3c(c(O)c1C2=O)C[C@@](O)(C(=O)CO)C[C@@H]3O[C@H]1C[C@H](N)[C@H](O)[C@H](C)O1 [Doxorubicin] | 52 mg/ml and 90 mM | sparingly | 
CC(=O)O[C@H]1C(=O)[C@@]2(C)[C@H]([C@H](OC(=O)c3ccccc3)[C@]3(O)C[C@H](OC(=O)[C@H](O)[C@@H](NC(=O)c4ccccc4)c4ccccc4)C(C)=C1C3(C)C)[C@]1(OC(C)=O)CO[C@@H]1C[C@@H]2O [Paclitaxel] | sparingly | 50 mg/mL (≈ 58.6 mM) | 4
